Source: the supplement of paper PMC10307832

Key:
Selumetinib + Dasatinib = compound: Cn1cnc2c(F)c(Nc3ccc(Br)cc3Cl)c(C(=O)NOCCO)cc21 [Selumetinib] + Cc1nc(Nc2ncc(C(=O)Nc3c(C)cccc3Cl)s2)cc(N2CCN(CCO)CC2)n1 [Dasatinib] (partner 0.075 µM); assay: relative viability (nuclei count vs DMSO), 5 days (fraction); higher = more cells survive
In short: (§1)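 Relative viability divides the nuclei count in treated wells by that in vehicle wells. Lung cancer cell lines were seeded in 1536-well plates, dosed by pin tool the next day, and fixed and stained after 5 days in one step with final 0.05% Triton X-100, 1% formaldehyde and 1 ug/ml Hoechst. Dosing was a single drug or a fixed anchor-drug dose plus five library-drug doses (not always all listed) in √10 steps, and values are medians of duplicate plates imaged at 4×.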

Venetoclax + Trametinib = compound: CC1(C)CCC(CN2CCN(c3ccc(C(=O)NS(=O)(=O)c4ccc(NCC5CCOCC5)c([N+](=O)[O-])c4)c(Oc4cnc5[nH]ccc5c4)c3)CC2)=C(c2ccc(Cl)cc2)C1 [Venetoclax] + CC(=O)Nc1cccc(-n2c(=O)n(C3CC3)c(=O)c3c(Nc4ccc(I)cc4F)n(C)c(=O)c(C)c32)c1 [Trametinib] (partner 0.02 µM); assay: as above
In short: as §1

Cell Line | relative viability (Selumetinib + Dasatinib; first compound 0.02 µM) | relative viability (Selumetinib + Dasatinib; first compound 0.06325 µM) | relative viability (Selumetinib + Dasatinib; first compound 0.2 µM) | relative viability (Selumetinib + Dasatinib; first compound 0.6325 µM) | relative viability (Venetoclax + Trametinib; first compound 0.01 µM) | relative viability (Venetoclax + Trametinib; first compound 0.03162 µM) | relative viability (Venetoclax + Trametinib; first compound 0.1 µM) | relative viability (Venetoclax + Trametinib; first compound 0.3162 µM) | relative viability (Venetoclax + Trametinib; first compound 1 µM)
HCC-78 | 0.395 | 0.344 | 0.347 | 0.364 | 0.599 | 0.826 | 0.597 | 0.722 | 0.911
HOP-62 | 0.583 | 0.526 | 0.387 | 0.249 | 0.44 | 0.341 | 0.366 | 0.442 | 0.39
NCI-H1623 | 0.465 | 0.454 | 0.461 | 0.505 |  |  |  |  | 
NCI-H3122 | 0.712 | 0.702 | 0.684 | 0.534 | 0.259 | 0.197 | 0.211 | 0.227 | 0.29
RERF-LC-KJ | 0.883 | 0.792 | 0.714 | 0.766 | 0.705 | 0.851 | 0.873 | 0.886 | 0.795
HCC-15 | 0.296 | 0.231 | 0.19 | 0.146 | 0.384 | 0.457 | 0.352 | 0.403 | 0.375
NCI-H1666 | 0.759 | 0.831 | 0.837 | 0.729 | 0.764 | 0.809 | 0.73 | 0.824 | 0.858
NCI-H1395 | 0.408 | 0.415 | 0.432 | 0.445 | 1.05 | 0.944 | 1.02 | 1.06 | 1.05
LCLC-97TM1 | 0.866 | 0.674 | 0.543 | 0.272 | 0.217 | 0.18 | 0.148 | 0.167 | 0.185
NCI-H1563 | 0.514 | 0.451 | 0.498 | 0.528 |  |  |  |  | 
HCC-827 | 0.24 | 0.331 | 0.26 | 0.294 | 0.522 | 0.593 | 0.538 | 0.521 | 0.535
NCI-H1651 | 0.387 | 0.378 | 0.402 | 0.362 | 0.88 | 0.89 | 0.804 | 0.838 | 0.926
HCC-366 | 0.501 | 0.566 | 0.456 | 0.367 | 0.358 | 0.411 | 0.353 | 0.383 | 0.407
EKVX | 0.469 | 0.567 | 0.371 | 0.276 | 0.328 | 0.382 | 0.302 | 0.335 | 0.38
NCI-H2228 | 0.428 | 0.454 | 0.405 | 0.39 | 0.715 | 0.608 | 0.567 | 0.453 | 0.464
LK-2 | 0.281 | 0.31 | 0.308 | 0.389 | 0.894 | 0.762 | 0.596 | 0.628 | 0.639
NCI-H1650 | 0.333 | 0.298 | 0.323 | 0.337 | 0.539 | 0.581 | 0.609 | 0.485 | 0.529
COR-L23 | 0.462 | 0.488 | 0.488 | 0.47 | 0.528 | 0.588 | 0.502 | 0.575 | 0.547
ABC-1 | 0.512 | 0.37 | 0.47 | 0.566 |  |  |  |  | 

Cell Line | relative viability (Selumetinib + Dasatinib; first compound 0.02 µM) | relative viability (Selumetinib + Dasatinib; first compound 0.06325 µM) | relative viability (Selumetinib + Dasatinib; first compound 0.2 µM) | relative viability (Selumetinib + Dasatinib; first compound 0.6325 µM) | relative viability (Venetoclax + Trametinib; first compound 0.01 µM) | relative viability (Venetoclax + Trametinib; first compound 0.03162 µM) | relative viability (Venetoclax + Trametinib; first compound 0.1 µM) | relative viability (Venetoclax + Trametinib; first compound 0.3162 µM) | relative viability (Venetoclax + Trametinib; first compound 1 µM)
SW 900 | 0.709 | 0.491 | 0.541 | 0.572 | 0.853 | 0.711 | 0.824 | 0.761 | 0.657
PC-3 [JPC-3] | 0.974 | 0.99 | 0.976 | 0.841 | 0.656 | 0.685 | 0.678 | 0.683 | 0.666
NCI-H1648 |  |  |  |  |  | 0.628 | 0.358 | 0.427 | 0.53
A-427 | 0.785 | 0.729 | 0.555 | 0.407 | 0.624 | 0.741 | 0.735 | 0.71 | 0.713
NCI-H1975 | 0.333 | 0.299 | 0.272 | 0.269 | 0.256 | 0.388 | 0.319 | 0.347 | 0.3
LU99A | 0.58 | 0.643 | 0.509 | 0.6 | 0.485 | 0.611 | 0.482 | 0.566 | 0.596
NCI-H1755 | 0.417 | 0.388 | 0.407 | 0.476 | 0.713 | 0.765 | 0.768 | 0.715 | 0.736
LOU-NH91 | 0.547 | 0.504 | 0.495 | 0.534 | 0.784 | 0.81 | 0.768 | 0.807 | 0.707
SK-LU-1 | 0.177 | 0.208 | 0.181 | 0.141 | 0.585 | 0.512 | 0.522 | 0.507 | 0.587
BEN | 0.295 | 0.341 | 0.368 | 0.371 | 1.1 | 1.02 | 0.864 | 1.04 | 1
NCI-H1734 | 0.506 | 0.531 | 0.466 | 0.549 | 0.588 | 0.739 | 0.635 | 0.781 | 0.614
LCLC-103H | 0.524 | 0.505 | 0.568 | 0.491 | 0.714 | 0.663 | 0.635 | 0.679 | 0.654
ChaGo-K-1 | 0.587 | 0.615 | 0.664 | 0.592 | 0.769 | 0.951 | 0.882 | 0.939 | 0.815
COR-L 105 | 0.328 | 0.239 | 0.224 | 0.22 | 0.333 | 0.499 | 0.386 | 0.496 | 0.413
NCI-H2009 | 0.233 | 0.183 | 0.163 | 0.151 | 0.346 | 0.351 | 0.292 | 0.266 | 0.264
NCI-H2023 | 0.534 | 0.484 | 0.562 | 0.448 | 0.526 | 0.552 | 0.558 | 0.485 | 0.477
SW 1573 | 0.589 | 0.362 | 0.534 | 0.446 | 0.571 | 0.612 | 0.486 | 0.603 | 0.545
NCI-H2405 | 0.216 | 0.22 | 0.17 | 0.187 | 0.769 | 0.603 | 0.584 | 0.646 | 0.591
HCC-44 |  |  |  |  | 1.03 | 1.11 | 1.04 | 1.04 | 0.999
